From patent publication US8940909B2, “Indicator platform” (Biosynth AG, priority 2009, dated 2015)

What was measured:
Assay in all cases: IO staining of colonies of beta-D-galactosidase positive/negative bacteria (Table IVb)
Type in all cases: cell-based
Aeromonas hydrophila 292 = settings: Aeromonas hydrophila strain 292, b-gal +; 24 h on Nutrient Agar, 150 mg/l indicator, 100 mg/l IPTG
Citrobacter freundii 181 = settings: Citrobacter freundii strain 181, b-gal +; 24 h on Nutrient Agar, 150 mg/l indicator, 100 mg/l IPTG
[1] = test system: Enterobacter aerogenes 242; settings: Enterobacter aerogenes strain 242, b-gal +; 24 h on Nutrient Agar, 150 mg/l indicator, 100 mg/l IPTG; as to C: Color of colonies: key: −: absent; +/−: weak; +: strong; ++: very strong; as to G: Growth of colonies: key: −: absent; +/−: weak; +: strong; ++: very strong
Enterobacter cloacae 245 = settings: Enterobacter cloacae strain 245, b-gal +; 24 h on Nutrient Agar, 150 mg/l indicator, 100 mg/l IPTG
[2] = test system: Escherichia coli (O157:H7) 60; settings: Escherichia coli (O157:H7) strain 60, b-gal +; 24 h on Nutrient Agar, 150 mg/l indicator, 100 mg/l IPTG
Escherichia coli 61 = settings: Escherichia coli strain 61, b-gal +; 24 h on Nutrient Agar, 150 mg/l indicator, 100 mg/l IPTG
Escherichia coli 270 = settings: Escherichia coli strain 270, b-gal +; 24 h on Nutrient Agar, 150 mg/l indicator, 100 mg/l IPTG
[3] = test system: Klebsiella pneumoniae 164; settings: Klebsiella pneumoniae strain 164, b-gal +; 24 h on Nutrient Agar, 150 mg/l indicator, 100 mg/l IPTG; as to C: Color of colonies: key: −: absent; +/−: weak; +: strong; ++: very strong; as to G: Growth of colonies: key: −: absent; +/−: weak; +: strong; ++: very strong
Serratia marcescens 40 = settings: Serratia marcescens strain 40, b-gal +; 24 h on Nutrient Agar, 150 mg/l indicator, 100 mg/l IPTG
[4] = test system: Staphylococcus intermedius 31; settings: Staphylococcus intermedius strain 31, b-gal +; 24 h on Nutrient Agar, 150 mg/l indicator, 100 mg/l IPTG
[5] = test system: Staphylococcus saprophyticus 273; settings: Staphylococcus saprophyticus strain 273, b-gal +; 24 h on Nutrient Agar, 150 mg/l indicator, 100 mg/l IPTG; as to G: Growth of colonies: key: −: absent; +/−: weak; +: strong; ++: very strong
Salmonella bongori 81 = settings: Salmonella bongori strain 81, b-gal +; 24 h on Nutrient Agar, 150 mg/l indicator, 100 mg/l IPTG
Salmonella illa 73 = settings: Salmonella illa strain 73, b-gal +; 24 h on Nutrient Agar, 150 mg/l indicator, 100 mg/l IPTG
[6] = test system: Shigella dysenteriae Serovar 1 131; settings: Shigella dysenteriae Serovar 1 strain 131, b-gal +/−; 24 h on Nutrient Agar, 150 mg/l indicator, 100 mg/l IPTG
Shigella sonnei 133 = settings: Shigella sonnei strain 133, b-gal +/−; 24 h on Nutrient Agar, 150 mg/l indicator, 100 mg/l IPTG
[7] = test system: Yersinia enterocolitica 175; settings: Yersinia enterocolitica strain 175, b-gal +/−; 24 h on Nutrient Agar, 150 mg/l indicator, 100 mg/l IPTG; as to G: Growth of colonies: key: −: absent; +/−: weak; +: strong; ++: very strong
Bacillus subtilis 65 = settings: Bacillus subtilis strain 65, b-gal −; 24 h on Nutrient Agar, 150 mg/l indicator, 100 mg/l IPTG
[8] = test system: Listeria monocytogenes (4b) 290; settings: Listeria monocytogenes (4b) strain 290, b-gal −; 24 h on Nutrient Agar, 150 mg/l indicator, 100 mg/l IPTG; as to C: Color of colonies: key: −: absent; +/−: weak; +: strong; ++: very strong; as to F: Fluorescence of colonies: key: −: absent; +/−: weak; +: strong; ++: very strong
[9] = test system: Pseudomonas aeruginosa 168; settings: Pseudomonas aeruginosa strain 168, b-gal −, 24 h on Nutrient Agar, 150 mg/l indicator, 100 mg/l IPTG; as to C: Color of colonies: key: −: absent; +/−: weak; +: strong; ++: very strong; as to G: Growth of colonies: key: −: absent; +/−: weak; +: strong; ++: very strong
Shigella boydii 135 = settings: Shigella boydii strain 135, b-gal −; 24 h on Nutrient Agar, 150 mg/l indicator, 100 mg/l IPTG
Staphylococcus aureus 2 = settings: Staphylococcus aureus strain 2, b-gal −, 24 h on Nutrient Agar, 150 mg/l indicator, 100 mg/l IPTG

In the case of `O=C(c1ccccc1)c1ccccc1-n1cc(O[C@@H]2O[C@H](CO)[C@H](O)[C@H](O)[C@H]2O)c2ccc(Cl)cc21` [Indicator I21a, 1-(2-Benzoylphenyl)-6-chloro-1H-indol-3-yl-beta-D-galactopyranoside], the “C: Color of colonies” value (Aeromonas hydrophila 292) is reported as “+”, the “F: Fluorescence of colonies” value (Aeromonas hydrophila 292) is reported as “+” and the “G: Growth of colonies” value (Aeromonas hydrophila 292) is reported as “+”. The “C: Color of colonies” value (Citrobacter freundii 181) was “+”, the “F: Fluorescence of colonies” value (Citrobacter freundii 181) was “+” and the “G: Growth of colonies” value (Citrobacter freundii 181) was “+”. For the same molecule, the “C: Color of colonies” value [1] was “+”, the “F: Fluorescence of colonies” value [1] was “+” and the “G: Growth of colonies” value [1] was “+”. The “C: Color of colonies” value (Enterobacter cloacae 245) was “+”, the “F: Fluorescence of colonies” value (Enterobacter cloacae 245) was “+” and the “G: Growth of colonies” value (Enterobacter cloacae 245) was “+”. For the same molecule, the “C: Color of colonies” value [2] was “+”, the “F: Fluorescence of colonies” value [2] was “+” and the “G: Growth of colonies” value [2] was “+”. For the same molecule, the “C: Color of colonies” value (Escherichia coli 61) was “+”, the “F: Fluorescence of colonies” value (Escherichia coli 61) was “+” and the “G: Growth of colonies” value (Escherichia coli 61) was “+”. For the same molecule, the “C: Color of colonies” value (Escherichia coli 270) was “++”, the “F: Fluorescence of colonies” value (Escherichia coli 270) was “+” and the “G: Growth of colonies” value (Escherichia coli 270) was “+”. For the same molecule, the “C: Color of colonies” value [3] was “+”, the “F: Fluorescence of colonies” value [3] was “+” and the “G: Growth of colonies” value [3] was “+”. For the same molecule, the “C: Color of colonies” value (Serratia marcescens 40) was “++”, the “F: Fluorescence of colonies” value (Serratia marcescens 40) was “+” and the “G: Growth of colonies” value (Serratia marcescens 40) was “+”. For the same molecule, the “C: Color of colonies” value [4] was “+/−”, the “F: Fluorescence of colonies” value [4] was “+/−” and the “G: Growth of colonies” value [4] was “+/−”. For the same molecule, the “C: Color of colonies” value [5] was “+”, the “F: Fluorescence of colonies” value [5] was “+” and the “G: Growth of colonies” value [5] was “+”. For the same molecule, the “C: Color of colonies” value (Salmonella bongori 81) was “+/−”, the “F: Fluorescence of colonies” value (Salmonella bongori 81) was “+/−” and the “G: Growth of colonies” value (Salmonella bongori 81) was “+”. For the same molecule, the “C: Color of colonies” value (Salmonella illa 73) was “−”, the “F: Fluorescence of colonies” value (Salmonella illa 73) was “−” and the “G: Growth of colonies” value (Salmonella illa 73) was “+”. The “C: Color of colonies” value [6] was “−”, the “F: Fluorescence of colonies” value [6] was “−” and the “G: Growth of colonies” value [6] was “+”. For the same molecule, the “C: Color of colonies” value (Shigella sonnei 133) was “+”, the “F: Fluorescence of colonies” value (Shigella sonnei 133) was “+” and the “G: Growth of colonies” value (Shigella sonnei 133) was “+”. For the same molecule, the “C: Color of colonies” value [7] was “−”, the “F: Fluorescence of colonies” value [7] was “+/−” and the “G: Growth of colonies” value [7] was “+”. For the same molecule, the “C: Color of colonies” value (Bacillus subtilis 65) was “−”, the “F: Fluorescence of colonies” value (Bacillus subtilis 65) was “−” and the “G: Growth of colonies” value (Bacillus subtilis 65) was “+/−”. The “C: Color of colonies” value [8] was “−”, the “F: Fluorescence of colonies” value [8] was “−” and the “G: Growth of colonies” value [8] was “+/−”. For the same molecule, the “C: Color of colonies” value [9] was “−”, the “G: Growth of colonies” value [9] was “+” and the “F: Fluorescence of colonies” value ([9]; footnote 1: blue autofluorescence) was “+^1”. For the same molecule, the “C: Color of colonies” value (Shigella boydii 135) was “−”, the “F: Fluorescence of colonies” value (Shigella boydii 135) was “−” and the “G: Growth of colonies” value (Shigella boydii 135) was “+”. The “F: Fluorescence of colonies” value (Staphylococcus aureus 2) was “−”, the “G: Growth of colonies” value (Staphylococcus aureus 2) was “+/−” and the “C: Color of colonies” value (Staphylococcus aureus 2; footnote 2: S. aureus natural color) was “−”.
